# Laboratory results: ChEMBL document CHEMBL5725801, “Fused heterocyclic compounds as CaM kinase inhibitors” (2018)
# Test: CaMKII Cell-Based Activity: CaMKII activity in neonatal rat ventricular myocytes (NRVM) was measured by monitoring the phosphorylation level of phospholamban using high-content imaging. NRVMs were plated in a clear bottom 384-well plate in medium supplemented with 10% fetal bovine serum (FBS) and incubated at 37° C., 5% CO2 overnight. The medium was changed to a serum-free medium and compounds were dosed to the cells. The cells were incubated at 37° C., 5% CO2 for 4 hours and were then treated with 100 nM ATX-II (Alomone Labs) to activate CaMKII. 10 minutes after the addition of ATX-II, the cells were fixed with 4% formaldehyde followed by permeabilization with 0.1% triton X100. The fixed cells were stained with an anti-phospho-phospholamban primary antibody (Santa Cruz Biotechnology) and an Alexa488-labeled anti-rabbit IgG secondary antibody (Life Technologies Corporation) as well as Hoechst 33342 (Life Technologies Corporation). The cells were imaged using an ArrayScan VTI (Cellomics) and analyzed for cells containing a positive fluorescent signal at 485 nm, reported as % responder. The % responders were plotted against the compound concentration to determine the compounds EC50.
row,SMILES,EC50
1,CCN(CC)[C@@H](C)CNC(=O)c1cc(NS(=O)(=O)CC)nc(-c2cnn3ccc(-c4cccs4)nc23)c1,126 nM
2,CCN(CC)[C@@H](C)CNC(=O)c1cc(NC(=O)OC(C)C)nc(-c2cnn3ccc(-c4cccs4)nc23)c1,39.8 nM
3,COC1CN(c2cc(C(=O)NC[C@@H]3CCCN3C)cc(-c3cnn4ccc(-c5cccs5)nc34)n2)C1,326 nM
4,CCN(CC)[C@@H](C)CNC(=O)c1cc(-c2cnn3ccc(-c4cccs4)nc23)nc(N2CC(O)(C3CC3)C2)c1,56.7 nM
5,CCN(CC)[C@@H](C)CNC(=O)c1cc(OCCN(C)C)nc(-c2cnn3ccc(-c4cccs4)nc23)c1,115 nM
6,O=C(c1ccnc(-c2cnn3ccc(-c4cccs4)nc23)c1)N1CC2CNC(COC2)C1 (stereo not given),259 nM
7,CCN(CC)[C@@H](C)CNC(=O)c1cc(-c2cnn3ccc(-c4ccccc4)nc23)nc(N2CC(OC)C2)c1,16.9 nM
8,CCN(CC)[C@@H](C)CNC(=O)c1cc(OC[C@H](C)OC)nc(-c2cnn3ccc(-c4cccs4)nc23)c1,48.4 nM
9,C[C@@]1(CNC(=O)c2ccnc(-c3cnn4ccc(-c5cccs5)nc34)c2)CCCN1,142 nM
10,CCN(CC)[C@H](CNC(=O)c1ccnc(-c2cnn3ccc(-c4ccccc4)nc23)c1)COc1ncccn1,47.3 nM
11,CCN(CC)[C@@H](C)CNC(=O)c1cc(NS(=O)(=O)C(C)C)nc(-c2cnn3ccc(-c4cccs4)nc23)c1,115 nM
12,O=C(NCC1CCCCN1)c1ccnc(-c2cnn3ccc(-c4ccccc4)nc23)c1 (stereo not given),955 nM
13,CN(C)c1cc(C(=O)N2CC[C@H](N)C2)cc(-c2cnn3ccc(-c4cccs4)nc23)n1,212 nM
14,CCN[C@H](C)CNC(=O)c1ccnc(-c2cnn3ccc(-c4cccs4)nc23)c1,34.8 nM
15,CCN(CC)[C@@H](C)CNC(=O)c1cc(-c2cnn3ccc(-c4cccs4)nc23)nc(N2CC(OC(F)F)C2)c1,19.9 nM
16,CCN(CC)[C@@H](C)CNC(=O)c1cc(N[C@@H](C)C(=O)NC)nc(-c2cnn3ccc(-c4cccs4)nc23)c1,129 nM
17,NC[C@H]1CCCN1C(=O)c1ccnc(-c2cnn3ccc(-c4cccs4)nc23)c1,58.3 nM
18,CCC(N)CNC(=O)c1ccnc(-c2cnn3ccc(-c4cccs4)nc23)c1 (stereo not given),22.9 nM
19,CCN(CC)[C@@H](C)CNC(=O)c1cc(-c2cnn3ccc(-c4cccs4)nc23)nc(N2CC(O)(C(F)(F)F)C2)c1,26.5 nM
20,COCCNc1cc(C(=O)N2CC3CCC(C2)NC3)cc(-c2cnn3ccc(-c4cccs4)nc23)n1 (stereo not given),124 nM
21,CCNC(=O)[C@@H]1CCN1c1cc(C(=O)NC[C@H](C)N(CC)CC)cc(-c2cnn3ccc(-c4cccs4)nc23)n1,28.5 nM
22,CCN(CC)[C@@H](C)CNC(=O)c1cc(NCC2COC2)nc(-c2cnn3ccc(-c4cccs4)nc23)c1,13600 nM
23,C[C@@H](CNC(=O)c1ccnc(-c2cnn3ccc(-c4cccs4)nc23)c1)NCCO,301 nM
24,CCN(CC)C(=O)[C@@H]1CCN1c1cc(C(=O)NC[C@H](C)N(CC)CC)cc(-c2cnn3ccc(-c4cccs4)nc23)n1,25.2 nM
25,CCN(CC)[C@@H](C)CNC(=O)c1cc(-c2cnn3ccc(-c4ccsc4)nc23)nc(N2CC(OC)C2)c1,14.9 nM
26,CCN(CC)[C@@H](C)CNC(=O)c1cc(-c2cnn3ccc(-c4cccs4)nc23)nc(N2CCC[C@@H]2C(N)=O)c1,166 nM
27,CCN(CC)[C@@H](C)CNC(=O)c1cc(NC2COC2)nc(-c2cnn3ccc(-c4cccs4)nc23)c1,7290 nM

row,SMILES,EC50
1,CC(C)C[C@@]1(CNC(=O)c2ccnc(-c3cnn4ccc(-c5cccs5)nc34)c2)CCCN1,66 nM
2,O=C(c1ccnc(-c2cnn3ccc(-c4ccccc4)nc23)c1)N1CCCC[C@@H]1[C@@H]1CCCN1,6.81 nM
3,CCN(CC)[C@@H](C)CNC(=O)c1cc(-c2cnn3ccc(-c4cccs4)nc23)nc(N2CC[C@H]2C(=O)N2CCS(=O)(=O)CC2)c1,118 nM
4,CCN(CC)[C@@H](C)CNC(=O)c1cc(-c2cnn3ccc(-c4cccs4)nc23)nc(N2CC[C@H]2C(=O)O)c1,89.3 nM
5,CCN(CC)[C@@H](CO)CNC(=O)c1ccnc(-c2cnn3ccc(-c4ccccc4)nc23)c1,61.9 nM
6,CN1CCC[C@H]1CNC(=O)c1ccnc(-c2cnn3ccc(-c4cccs4)nc23)c1,173 nM
7,CCN(CC)[C@@H](C)CNC(=O)c1cc(-c2cnn3ccc(-c4cccs4)nc23)nc(N2CC[C@H]2C(=O)N2CC3CC3C2)c1 (stereo not given in full),33.9 nM
8,CCN(CC)[C@@H](C)CNC(=O)c1cc(NCC2(C)COC2)nc(-c2cnn3ccc(-c4cccs4)nc23)c1,23.4 nM
9,CCN(CC)[C@@H](C)CNC(=O)c1cc(-c2cnn3ccc(-c4cccs4)nc23)nc(N2CC[C@H]2C(=O)N2CCCC2)c1,22.3 nM
10,CCN(CC)[C@@H](C)CNC(=O)c1cc(N[C@H](C)C(N)=O)nc(-c2cnn3ccc(-c4cccs4)nc23)c1,355 nM
11,CCN(CC)[C@@H](C)CNC(=O)c1cc(N[C@@H](C)CO)nc(-c2cnn3ccc(-c4cccs4)nc23)c1,34 nM
12,CCN(CC)[C@@H](C)CNC(=O)c1cc(-c2cnn3ccc(-c4cccs4)nc23)nc(N2CC(O)C2)c1,17.7 nM
13,COC1CN(c2cc(C(=O)N3CC4CCC(C3)NC4)cc(-c3cnn4ccc(-c5cccs5)nc34)n2)C1 (stereo not given),63.6 nM
14,NC[C@H]1CCCCN1C(=O)c1cc(Cl)nc(-c2cnn3ccc(-c4ccccc4)nc23)c1,33.7 nM
15,CCN(CC)[C@@H](C)CNC(=O)c1cc(-c2cnoc2)nc(-c2cnn3ccc(-c4cccs4)nc23)c1,29.7 nM
16,CCN(CC)[C@@H](C)CNC(=O)c1ccnc(-c2cnn3ccc(-c4ccccc4)nc23)c1,29 nM
17,CCN(CC)[C@@H](C)CNC(=O)c1cc(-c2cnn3ccc(-c4cccs4)nc23)nc(N2CC(NS(=O)(=O)C3CC3)C2)c1,28.1 nM
18,CCN(CC)[C@@H](C)CNC(=O)c1cc(-c2cnn3ccc(-c4cccs4)nc23)nc(N2CCC2)c1,40.2 nM
19,CCN(CC)[C@@H](C)CNC(=O)c1cc(-c2cnn3ccc(-c4cccs4)nc23)nc(N2CCC(O)C(F)(F)C2)c1 (stereo not given in full),65.5 nM
20,CCN(CC)[C@@H](C)CNC(=O)c1cc(N[C@@H](C)C(N)=O)nc(-c2cnn3ccc(-c4cccs4)nc23)c1,148 nM
21,CCN(CC)[C@@H](C)CNC(=O)c1cc(-c2cnn3ccc(-c4cccs4)nc23)nc(N2CCC(C)(O)CC2)c1,46 nM
22,COc1cc(C(=O)N2CC[C@H](N)C2)cc(-c2cnn3ccc(-c4ccccc4)nc23)n1,471 nM
23,O=C(c1ccnc(-c2cnn3ccc(-c4ccccc4)nc23)c1)N1CCC2CCNCC21 (stereo not given),65.6 nM
24,CCN(CC)[C@@H](C)CNC(=O)c1cc(O[C@@H]2CCOC2)nc(-c2cnn3ccc(-c4cccs4)nc23)c1,66.2 nM
25,Cc1cnc(-c2cnn3ccc(-c4ccccc4)nc23)cc1C(=O)N1CCCC[C@@H]1CN,33.3 nM
26,COC1CN(c2cc(C(=O)N3[C@H]4CCNC[C@@H]3CC4)cc(-c3cnn4ccc(-c5cccs5)nc34)n2)C1,148 nM
27,CCN(CC)[C@@H](C)CNC(=O)c1cc(-c2cnn3ccc(-c4cccs4)nc23)nc(N2CC(NS(=O)(=O)C(C)C)C2)c1,31.5 nM

row,SMILES,EC50
1,CCN(CC)C(C)CNC(=O)c1ccnc(-c2cnn3ccc(-c4ccccc4)nc23)c1 (stereo not given),103 nM
2,CCC(CNC(=O)c1ccnc(-c2cnn3ccc(-c4cccs4)nc23)c1)NC(C)C (stereo not given),60 nM
3,CCOC1CN(c2cc(C(=O)NC[C@H](C)N(CC)CC)cc(-c3cnn4ccc(-c5cccs5)nc34)n2)C1,9.45 nM
4,CC(CN)NC(=O)c1ccnc(-c2cnn3ccc(-c4ccccc4)nc23)c1 (stereo not given),175 nM
5,CCN(CC)[C@@H](C)CNC(=O)c1cc(N)nc(-c2cnn3ccc(-c4cccs4)nc23)c1,10.5 nM
6,CNc1cnc(-c2cnn3ccc(-c4ccccc4)nc23)cc1C(=O)N1CCCC[C@@H]1CN,21.8 nM
7,COC1CN(c2cc(C(=O)NC[C@@H]3CCCN3)cc(-c3cnn4ccc(-c5cccs5)nc34)n2)C1,261 nM
8,CCCN(CC)[C@@H](C)CNC(=O)c1cc(-c2cnn3ccc(-c4cccs4)nc23)nc(N2CC[C@H]2C(=O)NC)c1,13.6 nM
9,NC[C@H]1CCCCN1C(=O)c1cc(-c2cnn3ccc(-c4ccccc4)nc23)nc(C2CC2)c1,29.2 nM
10,CCN(CC)c1cc(C(=O)NC[C@H](C)N(CC)CC)cc(-c2cnn3ccc(-c4cccs4)nc23)n1,40.4 nM
11,CCN(CC)[C@@H](C)CNC(=O)c1cc(-c2cnn3ccc(-c4cccs4)nc23)nc(N2CC[C@H]2C(=O)N2CC(OC)C2)c1,32.5 nM
12,N[C@H]1CCN(C(=O)c2ccnc(-c3cnn4ccc(-c5cccs5)nc34)c2)C1,172 nM
13,NC[C@H]1CCCCN1C(=O)c1cc(-c2cnn3ccc(-c4ccccc4)nc23)ncc1N,23.3 nM
14,C[C@@H](NC(=O)c1ccnc(-c2cnn3ccc(-c4cccs4)nc23)c1)[C@@H]1CCCN1,518 nM
15,C[C@@H](CNC(=O)c1ccnc(-c2cnn3ccc(-c4ccccc4)nc23)c1)NCc1ncccn1,779 nM
16,CCN(CC)[C@@H](C)CNC(=O)c1cc(-c2cnn3ccc(-c4cccs4)nc23)nc(N(C)S(C)(=O)=O)c1,9.6 nM
17,CCC(C)N[C@@H](C)CNC(=O)c1ccnc(-c2cnn3ccc(-c4ccccc4)nc23)c1 (stereo not given in full),25.3 nM
18,CCN(CC)[C@@H](C)CNC(=O)c1cc(NS(C)(=O)=O)nc(-c2cnn3ccc(-c4cccs4)nc23)c1,107 nM
19,N[C@@H]1CCC[C@H]1NC(=O)c1ccnc(-c2cnn3ccc(-c4ccccc4)nc23)c1,259 nM
20,CCN(CC)[C@@H](C)CNC(=O)c1cc(-c2cnn(C)c2)nc(-c2cnn3ccc(-c4cccs4)nc23)c1,8.24 nM
21,O=C(c1ccnc(-c2cnn3ccc(-c4cccs4)nc23)c1)N1CC2CCC[C@@H](C1)NC2,54.3 nM
22,CCN[C@@H](C)CNC(=O)c1ccnc(-c2cnn3ccc(-c4ccccc4)nc23)c1,56.1 nM
23,CCN(CC)[C@@H](C)CNC(=O)c1cc(-c2cnn3ccc(-c4cccs4)nc23)nc(N2CC[C@H]2C(=O)NC2CC2)c1,28 nM
24,CCN(CC)[C@@H](C)CNC(=O)c1cc(-c2cnn3ccc(-c4cccs4)nc23)nc(N2CCN(C(C)=O)CC2)c1,43.6 nM
25,CCN(CC)[C@@H](C)CNC(=O)c1cc(NCCCO)nc(-c2cnn3ccc(-c4cccs4)nc23)c1,49.4 nM
26,CCN(CC)[C@@H](C)CNC(=O)c1ccnc(-c2cnn3ccc(-c4cccs4)nc23)c1,21.4 nM
